Test results reported in patent US6916923B2 (Hoffmann-La Roche Inc., priority 1999, dated 2005).
One block for each compound: values may come before it.

Tests used:
[1] = target: T1, Recombinant active human Cyclin E/CDK2 complexes (Homo sapiens, UniProt P24941); experiment: CDK2 FlashPlate Assay (inhibition of Rb phosphorylation); type: biochemical; settings: Cyclin E/CDK2, Rb substrate, 33P-ATP, 25 minutes at room temperature; read-out: Inhibition of Cdk2 - IC50 Range
T1 construct: made in house; host or cells: insect cells
Description: To determine inhibition of CDK2 activity, purified recombinant retinoblastoma (Rb) protein was coated on 96 well FlashPlates (New England Nuclear, Boston, Mass.). Rb is a natural substrate for phosphorylation by CDK2 (Herwig and Strauss Eurr. J. Biochem., Vol. 246 (1997) pp. 581-601 and references therein). Recombinant active human Cyclin E/CDK2 complexes were partially purified from extracts of insect cells. The active Cyclin E/CDK2 was added to the Rb-coated FlashPlates along with ^33P-ATP and dilutions of test compounds. Plates were incubated for 25 minutes at room temperature with shaking, then washed and counted in the Topcount scintillation counter (Packard Instrument Co., Downers Grove, Ill.). Dilutions of test compounds were tested in duplicate in each assay. The percent inhibition of Rb phosphorylation, which is a measure of the inhibition of CDK2 activity, was determined according to the following formula: [formula] where “test compound” refers to the average counts per minute of the test duplicates, “nonspecific” refers to the average counts per minute when no Cyclin E/CDK2 was added, and “total” refers to the average counts per minute when no compound was added.

[2] = test system: colon adenocarcinoma line SW480; experiment: SW480 cell-based antiproliferative (MTT) assay; settings: Homo sapiens, SW480, 144 h, 1000 cells per well, 6 days post addition of test compound, read-out: Antiproliferative Activity SW480 (colon) Assay - IC50 Range
Description: (§1) The estrogen receptor negative epithelial breast carcinoma line (MDA-MB-435) was purchased from American Type Cell Culture Collection (ATCC; Rockville, Md.) and was grown in the medium recommended by ATCC. For analysis of the effect of the test compounds on growth of these cells, the cells were plated at 2000 cells per well in a 96-well tissue culture plate, and were incubated overnight at 37° C. with 5% CO2. The next day, the test compounds were dissolved in 100% dimethyl sulfoxide (DMSO) to yield a 10 mM stock solution. Each compound was diluted with sterile medium to 1 mM in a sufficient quantity to yield a final concentration of 120 μM. The compounds were then serially diluted in medium with 1.2% DMSO. One-fourth final volume of the diluted compounds was transferred to 96 well plates. Test compounds were assayed in duplicate. DMSO was added to a row of “control cells” such that the final concentration of DMSO in each well was 0.3%. Wells to which no cells were added served as the “blank.” Wells to which no inhibitor was added served as “no inhibitor control”. The plates were returned to the incubator, and 5 days post addition of test compound, were analyzed as described below.
(§2) 3-(4,5-Dimethylthiazole-2-yl)-2,5-diphenyl-2H-tetrazolium bromide (thiazolyl blue; MTT) was added to each well to yield a final concentration of 1 mg/mL. The plates were then incubated at 37° C. for 3 hours. The plates were centrifuged at 1000 rpm for 5 minutes prior to aspiration of the MTT-containing medium. The MTT-containing medium was then removed and 100 μL 100% ethanol was added to each well to dissolve the resulting formazan metabolite. To ensure complete dissolution, plates were shaken for 15 minutes at room temperature. Absorbencies were read in a microtiter plate reader (Molecular Dynamics) at a wavelength of 570 nm with a 650 nm reference. Percent inhibition was calculated by subtracting the absorbance of the blank (no cell) wells from all wells, then subtracting the division of the average absorbance of each test duplicate by the average of the controls from 1.00. Inhibitory concentrations (IC50) were determined from the linear regression of a plot of the logarithm of the concentration versus the percent inhibition.
(§3) The colon adenocarcinoma line SW480 and the colon carcinoma line HCT-116 also were obtained from the ATCC and were tested according to the same protocol provided above for MDA-MB435 cell based assay with the following modifications. Cell line SW480 was plated at 1000 cells per well and analyzed at 6 days post addition of the test compound. Cell line HCT-116 was plated at 1000 cells per well and analyzed at 4 days post addition of test compound.

[3] = test system: estrogen receptor negative epithelial breast carcinoma line (MDA-MB-435); experiment: MDA-MB-435 cell-based antiproliferative (MTT) assay; settings: Homo sapiens, MDA-MB-435, 120 h, 2000 cells per well, 5 days post addition of test compound, read-out: Antiproliferative Activity of MDA-MB435 (breast) Assay - IC50 Range
Description: as §1, §2

[4] = test system: colon carcinoma line HCT-116; experiment: HCT-116 cell-based antiproliferative (MTT) assay; settings: Homo sapiens, HCT-116, 96 h, 1000 cells per well, 4 days post addition of test compound, read-out: Antiproliferative Activity HCT 116 (colon) Assay - IC50 Range
Description: as §1, §2, §3

SMILES: Cc1[nH]nc2c1N=C(c1ccccc1)c1cc(Cl)ccc1N2 [Compound B19, 3-methyl-5-phenyl-7-chloro-pyrazolo[3,4][1,4]benzodiazepine]
IC50 [1]: 0.01 to 0.99 µM
IC50 [2]: 1.1 to 9.99 µM
IC50 [3]: 1.1 to 9.99 µM

SMILES: c1ccc(C2=Nc3c[nH]nc3Nc3ccccc32)cc1 [Compound A9, 5-phenyl-pyrazolo[3,4][1,4]benzodiazepine]
IC50 [1]: 1 to 9.99 µM
IC50 [2]: 10 to 30 µM
IC50 [4]: 10 to 30 µM

SMILES: Cc1[nH]nc2c1N=C(c1ccccc1F)c1cc(I)ccc1N2 [Compound B29, 3-methyl-5-(2-fluorophenyl)-7-iodo-pyrazolo[3,4][1,4]benzodiazepine]
IC50 [1]: 0.01 to 0.99 µM
IC50 [2]: 1.1 to 9.99 µM
IC50 [3]: 0.01 to 1 µM

SMILES: Cc1[nH]nc2c1N=C(c1ccccc1F)c1cc([N+](=O)[O-])ccc1N2 [Compound B31, 3-methyl-5-(2-fluorophenyl)-7-nitro-pyrazolo[3,4][1,4]benzodiazepine]
IC50 [1]: 0.01 to 0.99 µM
IC50 [2]: 0.01 to 1 µM
IC50 [3]: 0.01 to 1 µM

SMILES: O=[N+]([O-])c1ccc2c(c1)C(c1ccccc1Cl)=Nc1c(n[nH]c1-c1ccccc1)N2 [Compound B23, 3-phenyl-5-(2-chlorophenyl)-7-nitro-pyrazolo[3,4][1,4]benzodiazepine]
IC50 [1]: 0.01 to 0.99 µM
IC50 [2]: 10 to 30 µM
IC50 [4]: 10 to 30 µM

SMILES: Cc1[nH]nc2c1N=C(c1ccccc1)c1cc(F)ccc1N2 [Compound B22, 3-methyl-5-phenyl-7-fluoro-pyrazolo[3,4][1,4]benzodiazepine]
IC50 [1]: 0.01 to 0.99 µM
IC50 [2]: 1.1 to 9.99 µM
IC50 [3]: 0.01 to 1 µM

SMILES: O=[N+]([O-])c1ccc2c(c1)C(c1ccccc1)=Nc1c[nH]nc1N2 [Compound A16, 5-phenyl-7-nitro-pyrazolo[3,4][1,4]benzodiazepine]
IC50 [1]: 0.01 to 0.99 µM
IC50 [4]: 10 to 30 µM

SMILES: Cc1[nH]nc2c1N=C(c1ccccc1Cl)c1ccccc1N2 [Compound B30, 3-methyl-5-(2-chlorophenyl)-pyrazolo[3,4][1,4]benzodiazepine]
IC50 [1]: 0.01 to 0.99 µM
IC50 [2]: 1.1 to 9.99 µM
IC50 [3]: 1.1 to 9.99 µM

SMILES: O=[N+]([O-])c1ccc2c(c1)C(c1ccccc1Cl)=Nc1c(n[nH]c1-c1ccc[nH]1)N2 [Compound B1, 3-(2-pyrrolyl)-5-(2-chlorophenyl)-7-nitro-pyrazolo[3,4][1,4]benzodiazepine]
IC50 [1]: 0.01 to 0.99 µM
IC50 [2]: 1.1 to 9.99 µM
IC50 [4]: 1.1 to 9.99 µM

SMILES: Fc1ccccc1C1=Nc2c[nH]nc2Nc2ccccc21 [Compound A10, 5-(2-fluorophenyl)-pyrazolo[3,4][1,4]benzodiazepine]
IC50 [1]: 1 to 9.99 µM
IC50 [2]: 10 to 30 µM
IC50 [4]: 10 to 30 µM

SMILES: Clc1ccccc1C1=Nc2c[nH]nc2Nc2ccccc21 [Compound A21, 5-(2-chlorophenyl)-pyrazolo[3,4][1,4]benzodiazepine]
IC50 [1]: 0.01 to 0.99 µM
IC50 [2]: 10 to 30 µM
IC50 [4]: 10 to 30 µM

SMILES: CS(=O)(=O)c1ccc2c(c1)C(c1ccccc1)=Nc1c[nH]nc1N2 [Compound A14, 5-phenyl-7-methanesulfonyl-pyrazolo[3,4][1,4]benzodiazepine]
IC50 [1]: 1 to 9.99 µM
IC50 [4]: 10 to 30 µM

SMILES: Cc1[nH]nc2c1N=C(c1ccccc1F)c1ccccc1N2 [Compound B21, 3-methyl-5-(2-fluorophenyl)-pyrazolo[3,4][1,4]benzodiazepine]
IC50 [1]: 0.01 to 0.99 µM
IC50 [2]: 0.01 to 1 µM
IC50 [3]: 1.1 to 9.99 µM

SMILES: N#Cc1ccc2c(c1)C(c1ccccc1F)=Nc1c(n[nH]c1CO)N2 [Compound B35, 3-hydroxymethyl-5-(2-fluorophenyl)-pyrazolo[3,4][1,4]-benzodiazepine-7-carbonitrile]
IC50 [1]: 0.01 to 0.99 µM
IC50 [2]: 0.01 to 1 µM
IC50 [3]: 0.01 to 1 µM

SMILES: O=[N+]([O-])c1ccc2c(c1)C(c1ccccc1Cl)=Nc1c(n[nH]c1-c1c[nH]cn1)N2 [Compound B14, 3-(4-imidazolyl)-5-(2-chlorophenyl)-7-nitro-pyrazolo[3,4][1,4]benzodiazepine]
IC50 [1]: 0.01 to 0.99 µM
IC50 [3]: 1.1 to 9.99 µM

SMILES: COc1ccc2c(c1)C(c1ccccc1Cl)=Nc1c(n[nH]c1C)N2 [Compound B18, 3-methyl-5-(2-chlorophenyl)-7-methoxy-pyrazolo[3,4][1,4]benzodiazepine]
IC50 [1]: 0.01 to 0.99 µM
IC50 [2]: 1.1 to 9.99 µM
IC50 [3]: 1.1 to 9.99 µM

SMILES: Cc1[nH]nc2c1N=C(c1ccccc1Cl)c1cc(Cl)ccc1N2 [Compound B20, 3-methyl-5-(2-chlorophenyl)-7-chloro-pyrazolo[3,4][1,4]benzodiazepine]
IC50 [1]: 0.01 to 0.99 µM
IC50 [2]: 1.1 to 9.99 µM
IC50 [3]: 1.1 to 9.99 µM

The next lines start with the values.

IC50 [1]: 0.01 to 0.99 µM
IC50 [2]: 0.01 to 1 µM
IC50 [3]: 0.01 to 1 µM
SMILES: Cc1[nH]nc2c1N=C(c1ccccc1Cl)c1cc(N)ccc1N2 [Compound C4]

IC50 [1]: 0.01 to 0.99 µM
IC50 [2]: 1.1 to 9.99 µM
IC50 [4]: 1.1 to 9.99 µM
SMILES: NC(=O)c1ccc2c(c1)C(c1ccccc1F)=Nc1c[nH]nc1N2 [Compound D50]

IC50 [1]: 0.01 to 0.99 µM
IC50 [2]: 0.01 to 1 µM
IC50 [3]: 0.01 to 1 µM
SMILES: CC(=O)Nc1ccc2c(c1)C(c1ccccc1Cl)=Nc1c(n[nH]c1C)N2 [Compound C7, N-(3-methyl-5-(2-chlorophenyl)-pyrazolo[3,4][1,4]benzodiazepin-7-yl)-acetamide]

IC50 [1]: 0.01 to 0.99 µM
IC50 [2]: 0.01 to 1 µM
IC50 [3]: 0.01 to 1 µM
SMILES: C=CC(=O)Nc1ccc2c(c1)C(c1ccccc1Cl)=Nc1c(n[nH]c1C)N2 [Compound C8, N-(3-methyl-5-(2-chlorophenyl)-pyrazolo[3,4][1,4]benzodiazepin-7-yl)-2-propenamide]

IC50 [1]: 0.01 to 0.99 µM
IC50 [2]: 0.01 to 1 µM
IC50 [3]: 0.01 to 1 µM
SMILES: Cc1[nH]nc2c1N=C(c1ccccc1Cl)c1cc(NS(C)(=O)=O)ccc1N2 [Compound C9, N-(3-methyl-5-(2-chlorophenyl)-pyrazolo[3,4][1,4]benzodiazepin-7-yl)-methanesulfonamide]

IC50 [1]: 0.01 to 0.99 µM
IC50 [4]: 10 to 30 µM
SMILES: O=C(NCCO)c1ccc2c(c1)C(c1ccccc1F)=Nc1c[nH]nc1N2 [Compound C2, N-(2-hydroxyethyl)-5-(2-fluorophenyl)-pyrazolo[3,4][1,4]benzodiazepine-7-carboxamide]

IC50 [1]: 1 to 9.99 µM
IC50 [2]: 10 to 30 µM
IC50 [4]: 10 to 30 µM
SMILES: Cc1ccccc1-c1[nH]nc2c1N=C(c1ccccc1Cl)c1cc([N+](=O)[O-])ccc1N2 [Compound D37]

IC50 [1]: 0.01 to 0.99 µM
IC50 [3]: 0.01 to 1 µM
SMILES: C=Cc1[nH]nc2c1N=C(c1ccccc1Cl)c1cc([N+](=O)[O-])ccc1N2 [Compound C17, 3-ethenyl-5-(2-chlorophenyl)-7-nitro-pyrazolo[3,4][1,4]benzodiazepine]

IC50 [1]: 0.01 to 0.99 µM
IC50 [4]: 10 to 30 µM
SMILES: CSc1ccc(-c2[nH]nc3c2N=C(c2ccccc2Cl)c2cc([N+](=O)[O-])ccc2N3)cc1 [Compound D11]

IC50 [1]: 0.01 to 0.99 µM
IC50 [3]: 0.01 to 1 µM
SMILES: O=Cc1[nH]nc2c1N=C(c1ccccc1Cl)c1cc([N+](=O)[O-])ccc1N2 [Compound C13, 5-(2-chlorophenyl)-7-nitro-pyrazolo[3,4][1,4]benzodiazepine-3-carboxaldehyde]

IC50 [1]: 0.01 to 0.99 µM
IC50 [2]: 0.01 to 1 µM
IC50 [3]: 0.01 to 1 µM
SMILES: O=[N+]([O-])c1ccc2c(c1)C(c1ccccc1Cl)=Nc1c(n[nH]c1CO)N2 [Compound C14, 3-hydroxymethyl-5-(2-chlorophenyl)-7-nitro-pyrazolo[3,4][1,4]benzodiazepine]

IC50 [1]: 0.01 to 0.99 µM
IC50 [4]: 10 to 30 µM
SMILES: O=[N+]([O-])c1ccc2c(c1)C(c1ccccc1)=Nc1c(n[nH]c1C1CC1)N2 [Compound D18]
